According to patent US11464795B2, “Saponin compound targeting PD-1 and application thereof” (EAST CHINA UNIVERSITY OF SCIENCE AND TECHNOLOGY, priority 2017, dated 2022):

Experiments:
[1] = molecular target: T1, human PD-1 binding to human PD-L1 (Homo sapiens, UniProt Q15116); test: SPR competition of compounds with PD-L1 protein for binding PD-1; details: PD-L1 on CM5 chip, compound pre-incubated with 3 μM PD-1 protein
T1 construct: amino acids 34-150 of human PD-1; made in house; PD-L1: purchased from Beijing Yiqiao Shenzhou Biotechnology Co., Ltd., no catalogue number
T1 sequence (Q15116 34-150): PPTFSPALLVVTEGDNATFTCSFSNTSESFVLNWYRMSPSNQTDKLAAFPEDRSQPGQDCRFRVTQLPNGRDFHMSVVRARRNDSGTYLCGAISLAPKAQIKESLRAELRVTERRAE
Method: Based on the results in the above examples, the present inventors investigated whether the compound can competite with PD-L1 for binding PD-1, and thus block PD-1 from binding PD-L1. PD-L1 protein was purchased from Beijing Yiqiao Shenzhou Biotechnology Co., Ltd. Specific experimental steps are as follows: 50 μg/ml PD-L1 protein was coupled to CM5 chip by amino coupling method. The coupling amount was about 3780 RU. Compounds of different concentrations were incubated with 3 μM PD-1 protein on ice for 30 min, and flowed across the surface of the chip along with the running buffer (1.05×PBS, 0.05% P20, 1% DMSO) at a flow rate of 30 μL/min, for binding time of 90 s and dissociation time of 120 s. PD-1 protein bound to PD-L1 protein on the chip decreases as the concentration of the compound increases, therefore, the response value decreases. The results of this experiment indicate that compounds can block PD-1 from binding PD-L1.

[2] = molecular target: T2, recombinant human PD-1 protein (Homo sapiens, UniProt Q15116); test: SPR determination of binding constants between saponin natural products and PD-1 protein; details: PD-1 coupled to CM7 chip, steady-state fitting, read-out: Binding affinity KD
T2 construct: amino acids 34-150 of human PD-1; made in house; host or cells: E. coli BL21 (DE3), pET-28a
T2 sequence (Q15116 34-150): as above
Method: Surface plasmon resonance (SPR) was used to determine the binding affinity between natural products and PD-1 protein. Specific experimental steps are as follows: Firstly, the purified protein was exchanged into 50 mM Hepes, pH 8.0, 250 mM NaCl, 1 mM DTT buffer, and diluted to 50 μg/ml with sodium acetate pH 4.5. The protein was coupled to CM7 chip with a coupling kit for 600 s at a flow rate of 10 μl/min. The final coupling amount was about 13000 RU. After the coupling was completed, the CM7 chip was equilibrated to a stable state in a buffer solution (1.05×PBS, 0.05% P20). […] The final data was analyzed by BIAevaluation2.0 software, and KD values were obtained by steady-state fitting.

Jurkat T cells = test: Detection of IL-2 secretion in T cells by ELISA (BxPC-3 / Jurkat T co-culture); format: cell-based; details: for Increase of the amount of IL-2 produced by Jurkat T cells: 50 μM compound, BxPC-3 tumor cells and Jurkat T cells co-cultured 3:1, 48 h, ELISA; for Restoration of the ability of depleted Jurkat T cells to secrete IL-2: FIG. 5 legend, result in words
Method: The inventors selected several compounds for the evaluation experiment of cell function. We co-cultured stimulated BxPC-3 tumor cells and activated Jurkat T cells in a 96-well plate at a ratio of 3:1. Jurkat T cells were cultured alone as a negative control. 50 μM of compound was added into the experimental group, and a D-hank's solution with the same DMSO content was used as a negative control. Each group was incubated in a carbon dioxide cell incubator for 48 h. The supernatant medium was collected and detected for the amount of IL-2 by an ELISA kit. Experiments were performed in triplicate. After tumor cells were co-cultured with T cells, the amount of IL-2 produced by the T cells was suppressed by about 55%. After 50 μM of compound 6 was added, the amount of IL-2 produced by Jurkat T cells can be increased by about 30%; after 50 μM of compound 8 was added, the amount of IL-2 produced by Jurkat T cells can be increased by about 1^7%; after 50 μM of compound 10 was added, the amount of IL-2 produced by Jurkat T cells can be increased by about 30%; after 50 μM of compound 11 was added, the amount of IL-2 produced by Jurkat T cells can be increased by about 12%; and after 50 μM of compound 13 was added, the amount of IL-2 produced by Jurkat T cells can be increased by about 23%. Such effects can be achieved in three repeated experiments. The results of this experiment indicate that the compounds can, to a certain extent, restore the function of T cells.

Kd [2]	Compound	Blocking of human PD-1 binding to human PD-L1 [1]	Increase of the amount of IL-2 produced by Jurkat T cells (Jurkat T cells)	Restoration of the ability of depleted Jurkat T cells to secrete IL-2 (Jurkat T cells)
2190 nM	C[C@@H]1O[C@@H](O[C@H]2[C@H](O[C@H]3[C@H](O[C@H]4CC[C@@]5(C)[C@@H](CC[C@]6(C)[C@@H]5CC=C5[C@@H]7CC(C)(C)C[C@@H](O)[C@]7(C)CC[C@]56C)[C@@]4(C)CO)O[C@H](C(=O)O)[C@@H](O)[C@@H]3O)O[C@H](CO)[C@H](O)[C@@H]2O)[C@H](O)[C@H](O)[C@H]1O [Compound 7]	can block human PD-1 from binding to human PD-L1	–	–
1400 nM	C[C@H]1[C@H](C)CC[C@]2(C(=O)O)CC[C@]3(C)C(=CC[C@@H]4[C@@]5(C)C[C@@H](O)[C@H](O)C(C)(C)[C@@H]5CC[C@]43C)[C@H]12 [Compound 11]	can block human PD-1 from binding to human PD-L1	about 12%	can restore the ability of depleted Jurkat T cells to secrete IL-2
2230 nM	CC1(C)CC[C@]2(C(=O)O[C@@H]3O[C@H](CO)[C@@H](O)[C@H](O)[C@H]3O)CC[C@]3(C)C(=CC[C@@H]4[C@@]5(C)CC[C@H](OC6O[C@H](C(=O)O)[C@@H](O)[C@H](O)[C@H]6OC6O[C@H](CO)[C@@H](O)[C@H](O)[C@H]6O)C(C)(C)[C@@H]5CC[C@]43C)[C@@H]2C1 (stereo partly drawn) [Compound 1]	can block human PD-1 from binding to human PD-L1	–	–
2100 nM	C[C@@H]1OC(O[C@H]2C(O[C@H]3CC[C@@]4(C)C(CC[C@]5(C)C4CC=C4C6CC(C)(C)CC[C@]6(C(=O)O)CC[C@]45C)[C@]3(C)CO)OC[C@H](OC3O[C@H](CO)[C@@H](O)[C@H](O)[C@H]3O)[C@@H]2O)[C@H](O)[C@H](O)[C@H]1O (stereo partly drawn) [Compound 3]	–	–	–
440 nM	C[C@@H]1CC[C@]2(C(=O)O)CC[C@]3(C)C(=CC[C@@H]4[C@@]5(C)CC[C@H](O[C@@H]6OC[C@H](O)[C@H](O)[C@H]6O)C(C)(C)[C@@H]5CC[C@]43C)[C@@H]2[C@]1(C)O [Compound 2]	can block human PD-1 from binding to human PD-L1	–	–
2710 nM	CC1(C)CC[C@]2(C(=O)O)CC[C@]3(C)C(=CCC4[C@@]5(C)CC[C@H](O)C(C)(C)C5CC[C@]43C)C2C1 (stereo partly drawn) [Compound 10]	can block human PD-1 from binding to human PD-L1	about 30%	can restore the ability of depleted Jurkat T cells to secrete IL-2
5020 nM	C[C@@H]1CC[C@@]2(C(=O)O)CC[C@]3(C)C(=CCC4[C@@]5(C)C[C@@H](O)[C@H](O)C(C)(C)C5CC[C@]43C)C2[C@H]1C (stereo partly drawn) [Compound 8]	can block human PD-1 from binding to human PD-L1	–	can restore the ability of depleted Jurkat T cells to secrete IL-2
40 nM	CC1(C)CC[C@]2(C(=O)O)CC[C@]3(C)C(=CC[C@@H]4[C@@]5(C)CC[C@H](O[C@@H]6O[C@H](C(=O)O)[C@@H](O)[C@H](O[C@@H]7OC[C@@H](O)[C@H](O)[C@H]7O)[C@H]6O)C(C)(C)[C@@H]5CC[C@]43C)[C@@H]2C1 [Compound 6]	can block human PD-1 from binding to human PD-L1	about 30%	can restore the ability of depleted Jurkat T cells to secrete IL-2
4920 nM	C[C@@H]1CC[C@]2(C(=O)O)CC[C@]3(C)C(=CCC4[C@@]5(C)CC[C@H](O)C(C)(C)C5CC[C@]43C)C2[C@H]1C (stereo partly drawn) [Compound 9]	can block human PD-1 from binding to human PD-L1	–	–
1770 nM	C[C@H]1[C@H](C)CC[C@]2(C(=O)O)CC[C@]3(C)C(=CC[C@@H]4[C@@]5(C)C[C@@H](O)[C@@H](O)C(C)(C)[C@@H]5CC[C@]43C)[C@H]12 [Compound 13]	can block human PD-1 from binding to human PD-L1	about 23%	can restore the ability of depleted Jurkat T cells to secrete IL-2
560 nM	CC1(C)CC[C@]2(C(=O)O[C@@H]3O[C@H](CO)[C@@H](O)[C@H](O)[C@H]3O)CC[C@]3(C)C(=CCC4[C@@]5(C)CCC(OC6O[C@H](C(=O)O)[C@@H](O)[C@H](O)[C@H]6O)C(C)(C)C5CC[C@]43C)[C@H]2C1 (stereo partly drawn) [Compound 4]	can block human PD-1 from binding to human PD-L1	–	–
–	CC1(C)CCC2(C(=O)O)CC[C@]3(C)C(=CCC4[C@@]5(C)C[C@@H](O)[C@H](O)C(C)(C)C5CC[C@]43C)C2C1 (stereo partly drawn) [Compound 12]	can block human PD-1 from binding to human PD-L1	–	–

Compound	Kd [2]	Blocking of human PD-1 binding to human PD-L1 [1]	Increase of the amount of IL-2 produced by Jurkat T cells (Jurkat T cells)	Restoration of the ability of depleted Jurkat T cells to secrete IL-2 (Jurkat T cells)
CC1(C)CC[C@]2(C(=O)O)CC[C@]3(C)C(=CC[C@@H]4[C@@]5(C)CC[C@H](O)[C@@](C)(CO)[C@@H]5CC[C@]43C)[C@@H]2C1 [Compound 5]	5360 nM	can block human PD-1 from binding to human PD-L1	–	–
